{"source": "patent US20160022665A2", "about": "“Pharmaceutical Compositions and Administrations Thereof” (Vertex Pharmaceuticals Incorporated, priority 2012, published 2016)", "key": {"[1]": {"test": "Physical and chemical stability of Compound 3 in aqueous methylcellulose formulations", "type": "physicochemical", "conditions": "for physical stability of the HCl salt form in suspension: 0.5% methylcellulose/0.5% polysorbate 80 suspension vehicle, T(0), XRPD and 1H NMR", "experimental": "A 100 mL stock solution of 0.5% by weight methylcellulose was prepared by stirring 0.5 g of methylcellulose with 99.5 g of purified water until completely dissolved (approximately 24 hours). The appropriate amount of Compound 3 HCl salt based on free base was weighed and transferred to a scintillation vial. The desired amount of 0.5% methylcellulose stock solution for making a 6 mg/mL based on free base (6.48 mg/mL based on HCl salt) was transferred into the vial and sonicated for 20 minutes and homogenized for approximately 5 minutes.\nMethylcellulose (0.5 g) was combined with 99.0 g of purified water in a beaker and stirred in a 60-70° C. water bath for 30′-1 hr. The solution was stirred in a 0° C. ice/water bath for another 30′ or until clear. Polysorbate 80 (0.5 g) was added and stirring at room temperature followed for 30′-1 hr or until a clear solution was obtained.\nThe appropriate amount of Compound 3 HCl salt based on free base was weighed and transferred to a scintillation vial. The desired amount of 0.5% methylcellulose and 0.5% polysorbate 80 stock solution for making a 6 mg/mL based on free base (6.48 mg/mL based on HCl salt) was transferred into the vial and sonicated for 20 minutes with alternate stirring for 1-2 minutes. The solution was homogenized for approximately 1-2 minutes."}, "[2]": {"target": "T1, ΔF508-CFTR (Homo sapiens, UniProt P13569, DEL508-508)", "T1 construct": "expressed in transfected cells", "T1 sequence (P13569 with tags, fused parts or gaps DEL508-508)": "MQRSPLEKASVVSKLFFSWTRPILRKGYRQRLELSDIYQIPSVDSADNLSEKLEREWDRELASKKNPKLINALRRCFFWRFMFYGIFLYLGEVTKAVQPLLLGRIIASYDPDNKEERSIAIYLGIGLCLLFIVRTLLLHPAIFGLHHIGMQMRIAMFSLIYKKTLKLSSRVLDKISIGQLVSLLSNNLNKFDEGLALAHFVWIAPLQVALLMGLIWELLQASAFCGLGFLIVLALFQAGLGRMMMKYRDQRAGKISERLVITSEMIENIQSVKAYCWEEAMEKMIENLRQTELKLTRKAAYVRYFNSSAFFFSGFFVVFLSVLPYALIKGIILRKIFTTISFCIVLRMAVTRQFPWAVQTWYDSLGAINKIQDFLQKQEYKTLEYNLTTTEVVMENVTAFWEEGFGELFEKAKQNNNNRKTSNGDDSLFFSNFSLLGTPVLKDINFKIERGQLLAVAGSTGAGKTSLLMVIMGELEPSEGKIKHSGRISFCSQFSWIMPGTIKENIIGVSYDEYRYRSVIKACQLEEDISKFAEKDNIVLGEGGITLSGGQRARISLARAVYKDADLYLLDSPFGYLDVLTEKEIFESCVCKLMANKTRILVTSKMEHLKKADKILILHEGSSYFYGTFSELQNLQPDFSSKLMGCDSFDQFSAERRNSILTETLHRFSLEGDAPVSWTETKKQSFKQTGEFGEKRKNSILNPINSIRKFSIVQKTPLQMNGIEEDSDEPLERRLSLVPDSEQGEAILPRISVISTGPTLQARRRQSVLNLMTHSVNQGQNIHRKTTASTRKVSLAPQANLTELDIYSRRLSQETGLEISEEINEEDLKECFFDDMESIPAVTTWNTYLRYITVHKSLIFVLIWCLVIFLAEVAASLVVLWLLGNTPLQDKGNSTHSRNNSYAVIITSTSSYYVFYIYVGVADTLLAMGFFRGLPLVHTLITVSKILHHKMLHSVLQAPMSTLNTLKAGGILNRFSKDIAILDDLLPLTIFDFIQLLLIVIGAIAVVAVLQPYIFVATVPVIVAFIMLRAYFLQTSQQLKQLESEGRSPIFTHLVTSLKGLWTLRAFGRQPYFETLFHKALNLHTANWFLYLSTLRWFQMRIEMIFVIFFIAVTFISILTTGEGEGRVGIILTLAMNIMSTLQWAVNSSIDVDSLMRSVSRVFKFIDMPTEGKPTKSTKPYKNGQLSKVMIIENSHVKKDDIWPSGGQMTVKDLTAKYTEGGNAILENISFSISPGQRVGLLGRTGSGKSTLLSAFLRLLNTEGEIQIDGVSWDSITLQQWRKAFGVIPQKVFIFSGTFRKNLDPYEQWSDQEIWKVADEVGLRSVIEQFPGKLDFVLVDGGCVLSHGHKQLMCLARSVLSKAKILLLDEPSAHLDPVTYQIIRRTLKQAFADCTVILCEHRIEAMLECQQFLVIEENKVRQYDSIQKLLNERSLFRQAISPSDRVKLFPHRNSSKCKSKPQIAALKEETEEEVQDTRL", "test": "Membrane potential optical assay (fluorescent voltage sensing dyes, FLIPR III), identification of potentiator compounds (Protocol 1)", "type": "cell-based", "description": "The assay utilizes fluorescent voltage sensing dyes to measure changes in membrane potential using a fluorescent plate reader (e.g., FLIPR III, Molecular Devices, Inc.) as a readout for increase in functional ΔF508-CFTR in NIH 3T3 cells. The driving force for the response is the creation of a chloride ion gradient in conjunction with channel activation by a single liquid addition step after the cells have previously been treated with compounds and subsequently loaded with a voltage sensing dye.\nTo identify potentiators of ΔF508-CFTR, a double-addition HTS assay format was developed. This HTS assay utilizes fluorescent voltage sensing dyes to measure changes in membrane potential on the FLIPR III as a measurement for increase in gating (conductance) of ΔF508 CFTR in temperature-corrected ΔF508 CFTR NIH 3T3 cells. The driving force for the response is a Cl^− ion gradient in conjunction with channel activation with forskolin in a single liquid addition step using a fluorescent plate reader such as FLIPR III after the cells have previously been treated with potentiator compounds (or DMSO vehicle control) and subsequently loaded with a redistribution dye.\nBath Solution #1: (in mM) NaCl 160, KCl 4.5, CaCl2 2, MgCl2 1, HEPES 10, pH 7.4 with NaOH.\nChloride-free bath solution: Chloride salts in Bath Solution #1 (above) are substituted with gluconate salts. […]"}}}
{"smiles": "Cc1ccc(NC(=O)C2(c3ccc4c(c3)OC(F)(F)O4)CC2)nc1-c1cccc(C(=O)O)c1", "note": "[Compound 3 Form I, 3-(6-(1-(2,2-difluorobenzo[d][1,3]dioxol-5-yl)cyclopropanecarboxamido)-3-methylpyridin-2-yl)benzoic acid]", "values": [{"measurement": "chemically stable (time)", "setting": "[1]; room temperature, 0.5% methylcellulose/0.5% polysorbate 80 formulation vehicle, no sign of chemical degradation", "result": "at least 24 hrs"}, {"measurement": "physically and chemically stable (time)", "setting": "[1]; room temperature, methylcellulose formulation (0.5% by weight), no sign of chemical degradation", "result": "at least 24 hrs"}]}
{"smiles": "CC(C)(C)c1cc(C(C)(C)C)c(NC(=O)c2c[nH]c3ccccc3c2=O)cc1O", "note": "[Compound 1, N-[2,4-bis(1,1-dimethylethyl)-5-hydroxyphenyl]-1,4-dihydro-4-oxoquinoline-3-carboxamide]", "values": [{"measurement": "Emax", "setting": "[2]; Compound 1, potentiator activity, Protocol 1, read-out: % Activity (relative efficacy)", "result": "25 to 100", "unit": "%"}]}
{"smiles": "O=C(Nc1ccc(N2C3CCC2[C@H](O)C3)cc1C(F)(F)F)c1c[nH]c2cccc(C(F)(F)F)c2c1=O", "note": "(stereo partly drawn) [Compound 2-5]", "values": [{"measurement": "% Efficacy", "setting": "[2]; compounds of Formula II, 100% efficacy is the maximum response obtained with 4-methyl-2-(5-phenyl-1H-pyrazol-3-yl)phenol", "result": "+++ (“+++” if efficacy was calculated to be greater than 100%)"}]}
{"smiles": "Cc1ccc(NC(=O)C2(c3ccc4c(c3)OC(F)(F)O4)CC2)nc1-c1cccc(C(=O)O)c1.Cl", "note": "[Compound 3 HCl salt, 3-(6-(1-(2,2-Difluorobenzo[d][1,3]dioxol-5-yl)cyclopropanecarboxamido)-3-methylpyridin-2-yl)benzoic acid.HCl salt]", "values": [{"measurement": "physical stability of the HCl salt form in suspension", "setting": "[1]", "result": "not physically stable"}, {"measurement": "physical stability of the HCl salt form in suspension", "setting": "[1]; listed as HCl salt", "result": "quickly converted to Compound 3 Form I"}]}
